Measurements published in patent publication US7432253B2, “Phosphoepoxides, method for making same and uses” (Institut National de la Sante et de la Recherche Medicale, priority 1998, dated 2008).

Experiments:
mice = experiment: Toxicity of Epox-PP (sodium salt) in mice, intravenous injection; type: in vivo
Method: Five 30 g mice received an intravenous injection (caudal vein) of 300 μl of PBS buffer containing 1 mg of Epox-PP (sodium salt). […] Toxicity is thus less than 20% for a dose of 33.4 mg of Epox-PP (sodium salt) per kilogram of animal body weight.

Tγ9δ2 lymphocyte clone = experiment: Induced cytotoxicity test of a Tγ9δ2 lymphocyte clone; type: cell-based; settings: for concentration at which the compound is active: stimulation of specific cytotoxic activity
Tγ9δ2 lymphocytes = experiment: Bioactivity (induced cytotoxicity test) after transient chemical treatment; type: cell-based; design: key: + indicates detection of activity upon Tγ9δ2 lymphocytes; − indicates that no activity could be detected; settings: diluted 1:30 from 5 to 10 μM solutions
Method: The bioactivity of the compound according to the invention Epox-PP (obtained as stated in Example 1) is compared with that of a stock preparation of Tubag natural phosphoantigens obtained as described in WO 95/20673.
Bioactivity is measured by an induced cytotoxicity test as described in Example 6 using the compound to be tested diluted 1:30 from 5 to 10 μM solutions of the compounds.
Before bioactivity is measured, the compounds are subjected to a transient chemical treatment by being brought into contact with one of the following reagents: NaIO4 (5 mM); NaBH3CN (10 mM, pH 7); KMnO4 (1 mM); bromine water Br2, H2O (7 mM), followed by neutralization of the reagent.

human Tγ9δ2 lymphocytes [1] = test system: human Tγ9δ2 lymphocytes
human Tγ9δ2 lymphocytes [2] = settings: prior art prenyl pyrophosphates, best results obtained; cited from earlier work

Substance	sign of shock or pyrogenicity (mice; 1 mg i.v. (caudal vein) per 30 g mouse)	variation in the weight of the mice (mice; 1 mg i.v. per 30 g mouse, during the study)	Toxicity (mice; dose of 33.4 mg per kilogram of animal body weight, i.v.)	mice still alive after 30 days (mice; five mice, 1 mg i.v. per 30 g mouse, 30 days)	concentration at which the compound is active (Tγ9δ2 lymphocyte clone)	Bioactivity after chemical treatment: KMnO4 (1 mM) (Tγ9δ2 lymphocytes; KMnO4 1 mM)	Bioactivity after chemical treatment: NaBH3CN (10 mM pH7) (Tγ9δ2 lymphocytes; NaBH3CN 10 mM pH 7)	Bioactivity after chemical treatment: NaIO4 (5 mM) (Tγ9δ2 lymphocytes; NaIO4 5 mM)	Bioactivity after chemical treatment: Br2, H2O (7 mM) (Tγ9δ2 lymphocytes; bromine water 7 mM)	Bioactivity after chemical treatment: none (Tγ9δ2 lymphocytes; no reagent)	active concentration relative to the compound from Example 1 (Tγ9δ2 lymphocyte clone; IPP versus Epox-PP)	minimum active concentration relative to natural phosphoantigens (human Tγ9δ2 lymphocytes [1])	minimum concentration at which activity could be demonstrated (human Tγ9δ2 lymphocytes [2])
3,4-epoxy-3-methyl-1-butyl diphosphate [Epox-PP (sodium salt)]	No sign of shock or pyrogenicity	no significant variation	less than 20%	5 mice	–	–	–	–	–	–	–	–	–
3,4-epoxy-3-methyl-1-butyl diphosphate [Epox-PP]	–	–	–	–	~20 nM	+	+	+	+	+	–	–	–
isopentenylpyrophosphate [IPP]	–	–	–	–	~3000 nM	–	–	–	–	–	150 times higher	~1000 times higher	≥ 3 µM
